For orientation: CC50 means the concentration giving 50% cytotoxicity. As a reminder, the EC50 is the concentration needed to bring the measured effect to its halfway point.

These results are taken from ChEMBL document CHEMBL2413068, “Solid-phase synthesis of 5'-triphosphate 2'-5'-oligoadenylates analogs with 3'-O-biolabile groups and their evaluation as RNase L activators and antiviral drugs” (Bioorg Med Chem, 2013).

Series [1] concerns Vero. The series is described as follows: Cytotoxicity against Respiratory syncytial virus A2 infected african green monkey Vero cells at 33.3 uM by Hucker's crystal violet staining. It counts as cell-based. To be noted: chlorocebus sabaeus.
The test system of series [2] is Vero. The series is described as follows: Cytotoxicity against african green monkey Vero cells assessed as cell viability up to 100 uM by Hucker's crystal violet staining. The series is classed as cell-based. To be noted: chlorocebus sabaeus.
Series [3] has as its system Respiratory syncytial virus. The series is described as follows: Antiviral activity against Respiratory syncytial virus A2 infected in african green monkey Vero cells assessed as reduction of virus-induced cytopathic effect at >= 15 nM pretreated 2 hrs before viral infection measured daily using hucker's crystal violet staining. It counts as functional, organism-based.

Series [4] in a line: Selectivity index, ratio of CC50 for human A549 cells to EC50 for Influenza A virus (A/WSN/1933(H1N1)). To be noted: read-out: Ratio CC50/EC50. The series is classed as toxicity, cell-based.
A short description of series [5]: Cytotoxicity against human A549 cells after 72 hrs by Cell Titer-Glo assay. It counts as cell-based. On the technique in general: In ATP-based viability assays light output follows the ATP content of the culture.
For series [6], the system named is Influenza A virus. Briefly: Antiviral activity against Influenza A virus (A/WSN/1933(H1N1)) infected in human A549 cells assessed as reduction of viral RNA level my measuring luminescence after 72 hrs by RT-PCR analysis. It counts as functional, organism-based. To be noted: A549, 72 h.
Series [7] deals with T1, 2-5A-dependent ribonuclease (Homo sapiens, UniProt Q05823).
T1 sequence (Q05823 whole entry): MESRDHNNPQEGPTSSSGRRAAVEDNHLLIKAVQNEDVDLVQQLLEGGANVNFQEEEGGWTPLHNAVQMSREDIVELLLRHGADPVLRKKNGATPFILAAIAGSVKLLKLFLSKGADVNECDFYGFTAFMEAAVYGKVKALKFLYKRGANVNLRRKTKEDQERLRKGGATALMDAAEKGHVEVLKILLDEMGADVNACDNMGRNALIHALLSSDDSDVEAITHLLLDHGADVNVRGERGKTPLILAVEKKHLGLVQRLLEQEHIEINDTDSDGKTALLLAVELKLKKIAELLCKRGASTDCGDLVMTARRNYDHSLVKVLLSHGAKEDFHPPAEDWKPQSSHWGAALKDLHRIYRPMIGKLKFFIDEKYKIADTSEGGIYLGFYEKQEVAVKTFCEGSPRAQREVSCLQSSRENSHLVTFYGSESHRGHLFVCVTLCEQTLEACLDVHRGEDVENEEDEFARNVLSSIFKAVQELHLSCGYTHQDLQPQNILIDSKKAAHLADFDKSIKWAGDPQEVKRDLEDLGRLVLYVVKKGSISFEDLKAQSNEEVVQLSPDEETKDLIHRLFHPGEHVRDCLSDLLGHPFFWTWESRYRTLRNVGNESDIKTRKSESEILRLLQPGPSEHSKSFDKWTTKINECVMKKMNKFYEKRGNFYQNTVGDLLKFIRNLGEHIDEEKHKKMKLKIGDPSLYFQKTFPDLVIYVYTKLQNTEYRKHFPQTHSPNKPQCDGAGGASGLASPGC
Briefly: Activation of human recombinant RNase L endonuclease activity using 6-FAM-UUAUCAAAUUCUUAUUUGCCCCAUUUUUUUGGUUUA-BHQ-1 as substrate assessed as substrate cleavage measured for 50 mins by FRET assay.

The structures appear in SMILES notation. Active and inactive are the calls of the source. The calls are words filed in the database; no cut-off is given here.

Consider `CC(C)(C)C(=O)OCO[C@H]1[C@@H](O)[C@H](n2cnc3ncnc(N)c32)O[C@@H]1COP(=O)(O)O[C@@H]1[C@H](OCOC(=O)C(C)(C)C)[C@@H](COP(=O)(O)O[C@@H]2[C@H](OCOC(=O)C(C)(C)C)[C@@H](COP(=O)(O)OP(=O)(O)OP(=O)(O)O)O[C@H]2n2cnc3ncnc(N)c32)O[C@H]1n1cnc2ncnc(N)c21`, for which the Activity entry was “Toxic” in series [1] and “Non-toxic” in series [2]. Moreover, the outcome in series [3] was Active. The selectivity ratio in series [4] is 3. This compound displayed a CC50 at 72 h in series [5] of 47000 nM. The EC50 in series [6] turned out to be 14600 nM; in series [7], 19.1 nM.
For the compound `CC(C)(C)C(=O)OCO[C@H]1[C@@H](O)[C@H](n2cnc3ncnc(N)c32)O[C@@H]1COP(=O)(O)O[C@@H]1[C@H](OCOC(=O)C(C)(C)C)[C@@H](COP(=O)(O)O[C@@H]2[C@H](OCOC(=O)C(C)(C)C)[C@@H](COP(=O)(O)O[C@@H]3[C@H](OCOC(=O)C(C)(C)C)[C@@H](COP(=O)(O)OP(=O)(O)OP(=O)(O)O)O[C@H]3n3cnc4ncnc(N)c43)O[C@H]2n2cnc3ncnc(N)c32)O[C@H]1n1cnc2ncnc(N)c21`, the EC50 in series [7] is 241 nM.
As for `Nc1ncnc2ncn([C@@H]3O[C@H](COP(=O)(O)O[C@@H]4[C@H](O)[C@@H](COP(=O)(O)O[C@@H]5[C@H](O)[C@@H](COP(=O)(O)O[C@@H]6[C@H](O)[C@@H](COP(=O)(O)OP(=O)(O)OP(=O)(O)O)O[C@H]6n6cnc7ncnc(N)c76)O[C@H]5n5cnc6ncnc(N)c65)O[C@H]4n4cnc5ncnc(N)c54)[C@@H](O)[C@H]3O)c12`, the EC50 in series [7] was determined as 6.1 nM.
